Blank lines part the entries; values can stand above or below the compound they belong to.
Columns and labels:
PRMT5 = PRMT5 (Homo sapiens, UniProt O14744); test: E-ASMS affinity selection; assay type: binding
USP21 = target: T1, USP21 (Homo sapiens, UniProt Q9UK80); test: E-ASMS affinity selection; assay type: binding; settings: USP21 beads, negative control protein
T1 sequence (Q9UK80 1-565): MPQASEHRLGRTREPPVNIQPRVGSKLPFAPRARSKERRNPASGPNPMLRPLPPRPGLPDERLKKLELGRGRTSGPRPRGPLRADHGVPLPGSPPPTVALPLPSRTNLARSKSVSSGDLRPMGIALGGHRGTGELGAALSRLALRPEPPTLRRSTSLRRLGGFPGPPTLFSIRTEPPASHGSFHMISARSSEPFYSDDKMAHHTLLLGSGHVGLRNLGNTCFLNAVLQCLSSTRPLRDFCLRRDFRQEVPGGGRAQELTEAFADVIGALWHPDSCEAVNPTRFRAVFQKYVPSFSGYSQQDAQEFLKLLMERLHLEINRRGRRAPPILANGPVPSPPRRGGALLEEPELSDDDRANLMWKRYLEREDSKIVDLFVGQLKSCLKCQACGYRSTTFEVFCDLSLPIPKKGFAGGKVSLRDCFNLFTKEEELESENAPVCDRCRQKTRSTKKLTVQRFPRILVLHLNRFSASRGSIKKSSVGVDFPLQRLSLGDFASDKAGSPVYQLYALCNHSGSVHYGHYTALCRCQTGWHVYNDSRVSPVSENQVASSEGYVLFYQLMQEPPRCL

DCAF1 = DCAF1 (Homo sapiens, UniProt Q9Y4B6); test: E-ASMS affinity selection; assay type: binding; settings: DCAF1 beads, negative control protein
[1] = Chiral stability assessment via hydrogen-deuterium; assay type: physicochemical; settings: binding buffer with D2O, 4 °C, 8 h; indicates potential spontaneous racemization
WDR91 = target: T2, WDR91 (Homo sapiens, UniProt A4D1P6); assay type: binding
T2 sequence (A4D1P6 1-747): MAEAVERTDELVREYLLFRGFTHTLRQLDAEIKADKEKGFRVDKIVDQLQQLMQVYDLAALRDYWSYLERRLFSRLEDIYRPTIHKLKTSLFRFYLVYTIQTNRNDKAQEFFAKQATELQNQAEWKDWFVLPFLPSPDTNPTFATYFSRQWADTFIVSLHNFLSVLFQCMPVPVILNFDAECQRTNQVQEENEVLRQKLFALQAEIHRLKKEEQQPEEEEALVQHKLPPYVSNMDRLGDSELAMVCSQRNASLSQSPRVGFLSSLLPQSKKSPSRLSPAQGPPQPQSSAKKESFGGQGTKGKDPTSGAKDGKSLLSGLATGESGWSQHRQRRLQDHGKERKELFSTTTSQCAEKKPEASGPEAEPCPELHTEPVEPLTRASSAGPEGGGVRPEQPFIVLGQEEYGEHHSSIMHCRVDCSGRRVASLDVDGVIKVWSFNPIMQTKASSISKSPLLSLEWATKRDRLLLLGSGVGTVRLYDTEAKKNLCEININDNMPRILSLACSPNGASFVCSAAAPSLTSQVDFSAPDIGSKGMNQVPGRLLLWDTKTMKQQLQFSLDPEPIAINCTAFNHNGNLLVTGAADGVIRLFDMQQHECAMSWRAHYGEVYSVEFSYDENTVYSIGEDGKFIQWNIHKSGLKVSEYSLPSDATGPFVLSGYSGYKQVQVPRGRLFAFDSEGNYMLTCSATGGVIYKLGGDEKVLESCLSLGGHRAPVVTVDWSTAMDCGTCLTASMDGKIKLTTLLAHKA

WDR55 [2] = target: T3, WDR55 (Homo sapiens, UniProt Q9H6Y2); assay type: binding
T3 sequence (Q9H6Y2 1-383): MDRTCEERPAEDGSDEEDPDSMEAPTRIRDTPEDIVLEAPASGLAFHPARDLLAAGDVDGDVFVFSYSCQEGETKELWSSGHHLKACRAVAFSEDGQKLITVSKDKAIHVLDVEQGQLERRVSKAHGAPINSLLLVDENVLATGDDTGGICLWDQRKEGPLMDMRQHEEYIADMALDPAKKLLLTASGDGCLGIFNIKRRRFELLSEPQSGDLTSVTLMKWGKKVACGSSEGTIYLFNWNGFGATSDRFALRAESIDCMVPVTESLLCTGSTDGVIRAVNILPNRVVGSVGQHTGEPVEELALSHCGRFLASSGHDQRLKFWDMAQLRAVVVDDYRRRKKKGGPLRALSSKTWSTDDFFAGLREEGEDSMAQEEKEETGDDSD

WDR55 [3] = target: T3, WDR55; test: biochemical; assay type: binding
DDB1 = DDB1 (Homo sapiens, UniProt Q16531); test: E-ASMS affinity selection; assay type: binding
Sequence of DDB1 (Q16531 whole entry): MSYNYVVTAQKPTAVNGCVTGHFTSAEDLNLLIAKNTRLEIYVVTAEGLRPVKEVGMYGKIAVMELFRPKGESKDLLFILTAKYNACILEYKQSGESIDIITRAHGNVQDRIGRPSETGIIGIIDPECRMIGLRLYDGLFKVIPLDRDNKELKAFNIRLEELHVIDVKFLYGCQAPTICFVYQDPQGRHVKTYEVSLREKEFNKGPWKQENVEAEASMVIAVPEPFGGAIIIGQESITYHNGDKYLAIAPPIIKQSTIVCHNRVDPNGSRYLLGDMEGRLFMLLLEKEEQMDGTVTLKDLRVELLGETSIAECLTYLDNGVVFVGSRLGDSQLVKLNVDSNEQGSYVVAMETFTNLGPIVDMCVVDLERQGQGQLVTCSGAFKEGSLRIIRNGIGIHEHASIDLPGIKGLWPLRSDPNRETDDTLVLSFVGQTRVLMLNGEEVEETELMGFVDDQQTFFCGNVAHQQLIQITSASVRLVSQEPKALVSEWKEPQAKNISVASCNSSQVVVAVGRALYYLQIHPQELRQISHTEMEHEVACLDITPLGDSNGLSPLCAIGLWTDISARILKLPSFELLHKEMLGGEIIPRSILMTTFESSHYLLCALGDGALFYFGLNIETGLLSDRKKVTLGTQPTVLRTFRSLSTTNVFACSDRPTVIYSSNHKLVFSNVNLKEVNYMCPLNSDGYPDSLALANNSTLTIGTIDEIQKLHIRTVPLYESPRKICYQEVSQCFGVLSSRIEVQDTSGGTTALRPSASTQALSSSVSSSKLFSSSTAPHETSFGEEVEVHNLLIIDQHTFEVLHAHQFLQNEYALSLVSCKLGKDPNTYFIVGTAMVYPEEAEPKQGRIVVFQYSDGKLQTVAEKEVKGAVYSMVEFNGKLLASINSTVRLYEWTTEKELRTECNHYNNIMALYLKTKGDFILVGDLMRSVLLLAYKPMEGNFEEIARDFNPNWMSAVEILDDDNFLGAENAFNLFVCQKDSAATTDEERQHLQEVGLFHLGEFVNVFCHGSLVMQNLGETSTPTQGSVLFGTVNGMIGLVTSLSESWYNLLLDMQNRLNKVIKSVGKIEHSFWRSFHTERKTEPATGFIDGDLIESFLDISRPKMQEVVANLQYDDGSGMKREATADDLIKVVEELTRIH

Sequence of PRMT5 (O14744 whole entry): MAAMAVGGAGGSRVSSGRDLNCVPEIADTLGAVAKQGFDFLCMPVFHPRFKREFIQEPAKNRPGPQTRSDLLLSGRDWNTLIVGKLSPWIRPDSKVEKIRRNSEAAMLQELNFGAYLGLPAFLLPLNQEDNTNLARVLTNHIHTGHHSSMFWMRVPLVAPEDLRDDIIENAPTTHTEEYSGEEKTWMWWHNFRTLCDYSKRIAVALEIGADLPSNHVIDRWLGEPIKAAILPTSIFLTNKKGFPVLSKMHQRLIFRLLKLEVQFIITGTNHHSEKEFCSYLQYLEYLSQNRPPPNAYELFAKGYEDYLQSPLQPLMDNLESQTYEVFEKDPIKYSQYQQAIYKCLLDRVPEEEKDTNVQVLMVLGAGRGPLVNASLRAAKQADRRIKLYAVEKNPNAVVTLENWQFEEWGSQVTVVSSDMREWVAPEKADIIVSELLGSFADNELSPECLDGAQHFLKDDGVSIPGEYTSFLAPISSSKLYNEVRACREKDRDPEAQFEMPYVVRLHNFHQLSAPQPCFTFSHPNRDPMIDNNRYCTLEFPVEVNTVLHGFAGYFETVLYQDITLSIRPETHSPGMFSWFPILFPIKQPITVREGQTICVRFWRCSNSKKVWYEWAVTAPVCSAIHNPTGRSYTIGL
Sequence of PRMT5 (Q9BQA1 whole entry partner): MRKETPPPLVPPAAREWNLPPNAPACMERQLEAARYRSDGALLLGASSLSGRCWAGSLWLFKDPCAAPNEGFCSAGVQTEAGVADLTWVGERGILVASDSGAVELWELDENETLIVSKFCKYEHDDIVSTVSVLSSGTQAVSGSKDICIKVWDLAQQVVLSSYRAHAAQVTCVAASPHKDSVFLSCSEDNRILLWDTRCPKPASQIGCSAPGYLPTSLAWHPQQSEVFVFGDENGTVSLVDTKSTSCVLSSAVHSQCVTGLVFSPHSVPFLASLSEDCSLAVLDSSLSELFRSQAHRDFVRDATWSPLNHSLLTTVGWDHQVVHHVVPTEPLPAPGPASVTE
Sequence of DCAF1 (Q9Y4B6 whole entry): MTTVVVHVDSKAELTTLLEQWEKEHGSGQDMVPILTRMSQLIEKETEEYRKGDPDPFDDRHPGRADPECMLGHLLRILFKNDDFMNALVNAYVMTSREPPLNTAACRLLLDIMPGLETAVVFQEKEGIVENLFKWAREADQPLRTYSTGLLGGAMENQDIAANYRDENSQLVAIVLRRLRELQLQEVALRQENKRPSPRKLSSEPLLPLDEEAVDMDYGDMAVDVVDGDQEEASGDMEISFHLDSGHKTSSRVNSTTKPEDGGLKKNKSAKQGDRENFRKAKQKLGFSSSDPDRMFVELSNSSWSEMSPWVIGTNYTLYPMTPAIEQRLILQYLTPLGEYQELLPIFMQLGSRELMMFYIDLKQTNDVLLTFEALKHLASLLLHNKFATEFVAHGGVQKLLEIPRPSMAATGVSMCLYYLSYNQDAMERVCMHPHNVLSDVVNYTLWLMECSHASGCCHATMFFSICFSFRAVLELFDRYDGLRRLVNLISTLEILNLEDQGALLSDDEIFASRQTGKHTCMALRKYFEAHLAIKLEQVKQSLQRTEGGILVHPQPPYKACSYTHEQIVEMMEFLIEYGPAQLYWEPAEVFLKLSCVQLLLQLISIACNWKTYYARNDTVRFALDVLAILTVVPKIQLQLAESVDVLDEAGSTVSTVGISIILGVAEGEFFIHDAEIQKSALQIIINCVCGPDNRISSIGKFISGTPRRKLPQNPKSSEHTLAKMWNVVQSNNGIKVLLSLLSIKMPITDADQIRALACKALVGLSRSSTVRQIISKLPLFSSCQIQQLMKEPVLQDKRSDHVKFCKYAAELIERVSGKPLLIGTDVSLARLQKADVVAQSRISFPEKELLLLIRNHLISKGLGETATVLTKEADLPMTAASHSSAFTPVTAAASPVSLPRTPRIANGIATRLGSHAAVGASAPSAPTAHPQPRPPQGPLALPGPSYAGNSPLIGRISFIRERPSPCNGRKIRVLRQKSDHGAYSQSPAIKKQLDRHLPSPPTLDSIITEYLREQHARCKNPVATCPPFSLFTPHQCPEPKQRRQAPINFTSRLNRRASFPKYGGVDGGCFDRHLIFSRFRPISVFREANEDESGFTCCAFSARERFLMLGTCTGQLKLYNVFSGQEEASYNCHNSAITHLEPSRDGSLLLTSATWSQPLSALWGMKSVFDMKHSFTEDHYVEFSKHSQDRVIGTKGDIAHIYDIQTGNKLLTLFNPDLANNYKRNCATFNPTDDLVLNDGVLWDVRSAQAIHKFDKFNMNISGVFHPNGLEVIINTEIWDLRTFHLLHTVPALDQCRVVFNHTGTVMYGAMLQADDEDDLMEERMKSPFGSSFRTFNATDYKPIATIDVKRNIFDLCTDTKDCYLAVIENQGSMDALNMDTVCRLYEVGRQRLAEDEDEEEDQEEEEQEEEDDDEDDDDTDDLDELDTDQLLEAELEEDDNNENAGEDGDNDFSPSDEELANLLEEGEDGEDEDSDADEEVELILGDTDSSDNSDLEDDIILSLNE

Structure (SMILES): Nc1ncnc2c1ccn2[C@@H]1O[C@H]([C@H](O)c2ccccc2)[C@@H](O)[C@H]1O [(S)-LLY283]
Enantioselective enrichment (chiral chromatography of eluate) (PRMT5; PRMT5 eluate): Enantioselective enrichment

Structure (SMILES): Nc1cccc2c1CN(C1CCC(=O)NC1=O)C2=O (stereo not drawn) [Lenalidomide, lenalidomide]
Enrichment in methanol eluate (E-ASMS) (PRMT5; PRMT5 beads, negative control protein): no significant enrichment | Enrichment in methanol eluate (E-ASMS) (USP21): no significant enrichment | Enrichment in methanol eluate (E-ASMS) (DCAF1): no significant enrichment

Further lines, with some results ahead:

Deuterium incorporation (H/D exchange) [1]: showed deuterium incorporation | Enantioselective binding (chiral chromatography of eluate) (WDR91; WDR91-bead eluate): did not show enantioselectivity | Enrichment in methanol eluate (E-ASMS) (WDR91; WDR91 beads vs other proteins screened in parallel): enriched
Structure (SMILES): CN1C(=O)C(c2c(-c3ccc(Cl)cc3)[nH]c3c2c(=O)[nH]c(=O)n3C)c2ccccc21 (stereo not drawn) [XS381295]

Enantioselective binding (chiral chromatography of eluate) (WDR55 [2]; WDR55-bead eluate): displayed enantioselectivity | Enrichment in methanol eluate (E-ASMS) (WDR55 [2]; WDR55 beads): enriched | Kd (WDR55 [3]): 11 µM
Structure (SMILES): CC1Cc2cc(-c3ccnc4ncnn34)ccc2O1 (stereo not drawn) [XS381774]

Enrichment in methanol eluate (E-ASMS) (DDB1; DDB1 beads vs other proteins screened in parallel): specifically enriched
Structure (SMILES): CCOc1cccc(C2CC(=O)Nc3c2c(C)nn3-c2ccc3nncn3n2)c1 (stereo not drawn) [XS381952]
Enantioselective enrichment (chiral chromatography of eluate) (DDB1; DDB1-bead eluate vs ratio of enantiomers in starting library): one of the two enantiomers was clearly enriched

Reference: publication PMC12816581 (Nature Communications, 2025)
